Measurements: US20250032530A1, “USE OF AURANOFIN AS AN INHIBITOR OF ATYPICAL PROTEIN KINASE C FOR TREATMENT OF NEURODEGENERATIVE DISORDERS” (UNIVERSITY OF SOUTH FLORIDA, priority 2021, published 2025)
Where two headings read alike, the source gives them in different places.

What was measured:
[1] = IV and PO, 200 mg/kg body weight; cited from earlier work
[2] = tested on: BACE1 and CKs (TNF-α, IL-1β, IL-6); test: BACE1 and proinflammatory cytokine levels in APP/PS1 AD mice given oral ICAP; assay type: in vivo, mouse
Excerpt: Values are Mean±SEM of results in 10 mice.
As alluded to, resting PKC-λ/ι activity was increased by approx. 40% in brains of Tg APP/PS1 AD mice, relative to normal WT mice (FIG. 17).

aPKC = settings: cited from earlier work
PKC-λ/ι = biological target: T1, PKC-λ/ι (Mus musculus, UniProt Q62074); settings: cited from earlier work
T1 sequence (Q62074 1-595): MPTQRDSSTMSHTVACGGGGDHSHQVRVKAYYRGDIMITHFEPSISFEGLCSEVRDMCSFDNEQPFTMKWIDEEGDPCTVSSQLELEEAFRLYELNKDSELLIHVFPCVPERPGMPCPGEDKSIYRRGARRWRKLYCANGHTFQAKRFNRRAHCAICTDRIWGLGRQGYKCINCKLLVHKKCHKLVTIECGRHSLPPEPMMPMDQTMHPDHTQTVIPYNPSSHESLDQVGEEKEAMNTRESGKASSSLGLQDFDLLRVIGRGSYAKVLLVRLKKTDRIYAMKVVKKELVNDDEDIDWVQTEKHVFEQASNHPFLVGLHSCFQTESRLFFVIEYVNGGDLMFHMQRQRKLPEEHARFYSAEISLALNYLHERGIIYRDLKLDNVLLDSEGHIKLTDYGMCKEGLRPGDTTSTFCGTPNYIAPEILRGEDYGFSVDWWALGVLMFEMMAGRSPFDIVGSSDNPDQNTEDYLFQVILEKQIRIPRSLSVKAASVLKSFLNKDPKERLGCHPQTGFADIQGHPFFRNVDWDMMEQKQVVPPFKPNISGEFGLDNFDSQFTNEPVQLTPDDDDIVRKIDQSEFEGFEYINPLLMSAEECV

70 kDa PKC-λ/ι = biological target: T2, 70 kDa PKC-λ/ι (Mus musculus, UniProt Q62074); test: 70 kDa PKC-λ/ι activity (p-thr-555/560-aPKC, Western) in brain and liver of normal mice given ICAP nasally or IV; assay type: in vivo
T2 construct: from tissue; host or cells: mouse brain and liver
T2 sequence (Q62074 1-595): T1 sequence (Q62074 1-595)

[3] = tested on: aPKC, Akt2, AMP-activated kinase (AMPK), FoxO1; settings: isolated human hepatocytes; cited from earlier work
[4] = tested on: Aβ-peptides and Aβ-plaque; test: AD pathology (Aβ-peptides by ELISA, Aβ-plaque load) in transgenic APP/PS1 AD mice given ICAP; assay type: in vivo, mouse
BACE1 [5] = test: BACE1 protein and mRNA levels in brain and liver of normal mice given ICAP nasally or IV; assay type: in vivo, mouse
Method: Values are mean±SEM of 6 mice/group. P values, (ANOVA).
Values are mean±SEM of 6 mice/group.
As described, samples from mouse brains that were flash-frozen in liquid N2 and stored at −80° C. were homogenized in buffer containing 0.25M sucrose, 20 mM Tris/HCl (pH, 7.5), 2 mM EGTA, 2 mM EDTA, 1 mM phenyl-methyl-sulfonyl-fluoride, 20 μg/ml leupeptin, 10 μg/ml aprotinin, 2 mM Na4P2O7, 2 mM Na3VO4, 2 mM NaF, and 1 μM microcystin, and then supplemented with 1% TritonX-100, 0.6% Nonidet and 150 mM NaCl.
(§1) As described, western analyses were conducted with rabbit antisera, using: anti-aPKC [recognizes a C-terminal sequence in all aPKCs (Santa Cruz Biotechnologies, Santa Cruz, CA, USA)]; anti-phospho-threonine (thr)-560/555-PKC-ζ/λ/ι [recognizes a phosphopeptide sequence present in all aPKCs and indicates activation (Invitrogen, Carlsbad, CA, USA)]; anti-phospho-serine (ser)-473-Akt [recognizes a phosphopeptide sequence at 60 kDa present in all Akt's-1/2/3 and indicates activation (Cell Signaling Technologies, Danvers, MA, USA)]; anti-4 kDa-AP1-40/42 (Cell Signaling Technologies, Danvers, MA, USA); anti-mouse-70 kDa-BACE1 and anti-human-70 kDa-BACE1 (ThermoFisher); and anti-phospho-threonine (thr)-231-tau (Gene Tex, Irvine, CA, USA). Samples from all experimental groups within each study were compared on the same blots and routinely checked with loading controls. All comparisons in histograms were made relative to the mean value of the basal control group, i.e., wild-type mice consuming standard low-fat mouse chow, untreated with insulin or aPKC inhibitors, and having normal levels of aPKCs and other cellular proteins.

50 kDa PKMζ = biological target: T3, 50 kDa PKMζ (Mus musculus, UniProt Q02956); test: 50 kDa PKMζ activity in brain of normal mice given nasal ICAP; assay type: in vivo; settings: 100 mg/kg/day, 3 weeks
T3 construct: from tissue; host or cells: mouse brain
T3 sequence (Q02956 1-409 isoform Q02956-2): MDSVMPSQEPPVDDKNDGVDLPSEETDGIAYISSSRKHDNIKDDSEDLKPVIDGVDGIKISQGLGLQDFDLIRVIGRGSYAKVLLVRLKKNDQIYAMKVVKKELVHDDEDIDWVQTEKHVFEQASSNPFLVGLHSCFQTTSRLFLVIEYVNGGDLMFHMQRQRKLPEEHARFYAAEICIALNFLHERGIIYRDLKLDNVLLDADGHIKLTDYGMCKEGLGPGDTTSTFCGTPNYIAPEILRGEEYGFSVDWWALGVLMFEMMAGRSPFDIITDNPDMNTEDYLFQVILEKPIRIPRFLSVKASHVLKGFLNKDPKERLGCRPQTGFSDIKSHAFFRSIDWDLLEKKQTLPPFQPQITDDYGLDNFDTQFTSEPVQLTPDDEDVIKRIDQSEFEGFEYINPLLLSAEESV

[6] = Distribution and passage of the blood brain barrier; assay type: in vivo; settings: published and prelim PK/PD studies
Method: aPKC Inhibitors. We identified by HTS compounds that target the substrate-binding site of aPKCs and potently (IC50s10-30 nM) inhibit recombinant PIP3-dependent aPKCs, but not DAG-dependent PKCs. Three compounds have been studied in detail: (a) 1H-imidazole-4-carboxamide, 5-amino-1-[2,3-dihydroxy-4-[(phosphono-oxy)methyl]cyclopentyl-[1R-(1a,2b,3b,4a)] […] Thus, these agents can reduce brain aPKC activity, indirectly at lower doses by inhibiting liver aPKC and correcting hyperinsulinemia in insulin-resistant states, and, at higher doses, by acting directly on brain PKC-λ/ι.

Tg APP/PS1 AD mice = test: Memory tests (Novel Object Recognition, RAWM) in transgenic APP/PS1 AD mice given oral ICAP; assay type: in vivo, mouse; settings: PO 100 mg/kg/day × 3 months
Method: Radial Arm Water Maze (RAWM) assesses learning and spatial memory and requires hippocampal and frontal cortical areas. The maze consisted of a circular pool filled with opaque water, with 6 arms radiating from a central area. On each training day, mice were released to swim and find a submerged escape platform at the end of a goal arm, utilizing extra-maze cues to form a spatial representation. On each day, there were 4 consecutive acquisition trials of no more than 1 minute each. […] If the animal made an error, it was returned to the start arm in a restart procedure. After the last acquisition trial, the animal was dried and returned to its home cage for 30 min and then given a single retention trial from the same start arm to measure short-term spatial memory.

[7] = PO; cited from earlier work
BACE1 [8] = test: BACE1 levels in LA1-5s neuronal cells treated with insulin; assay type: cell-based, human; settings: 200 nM insulin, 24 hours; increasing concentrations of ICAPP
Method: Values of BACE1 are Mean±SEM of 4 values. Asterisks indicate P<0.05 for comparison of designated group versus the untreated control group (ANOVA).
(§2) LA1-5s neuronal cells were originally obtained from non-catecholamine-producing neuroblastoma of a person and are commercially available from the European Collection of Authenticated Cell Cultures. Incubation conditions were as described.
as §1

PKCι and PKCζ = settings: cited from earlier work
NFκB = test: Insulin-induced NFκB activity in LA1-5s neuronal cells; assay type: cell-based, human; settings: 200 nM insulin, 24 hours; 1 μM ACPD, increasing concentrations of auranofin
Excerpt: (§3) Cell lysates were subjected to Western analyses for phosphorylated/activated forms of aPKC, NFκB and Akt. Representative blots of indicated proteins are shown in upper bands. […] Bargrams show Mean±SEM of 3-4 determinations. Asterisks indicate P<0.05; comparison of designated group versus the uninhibited, insulin-treated group (ANOVA).
as §2
as §1, with “Samples from all experimental groups within each study were compared on the same blots and routinely checked with loading controls. All comparisons in histograms were made relative to the mean value of the basal control group, i.e., wild-type mice consuming standard low-fat mouse chow, untreated with insulin or aPKC inhibitors, and having normal levels of aPKCs and other cellular proteins.” left out

sensitive cancer cells = settings: read-out: cytotoxicity activity (IC50); cited from earlier work
Akt = test: Insulin-induced Akt activation in LA1-5s neuronal cells; assay type: cell-based, human; settings: 200 nM insulin, 24 hours
Excerpt: as §3, §2
as §1, with “Samples from all experimental groups within each study were compared on the same blots and routinely checked with loading controls. All comparisons in histograms were made relative to the mean value of the basal control group, i.e., wild-type mice consuming standard low-fat mouse chow, untreated with insulin or aPKC inhibitors, and having normal levels of aPKCs and other cellular proteins.” left out

CA-125 = settings: oral administration, 10 patients; cited from earlier work
[9] = tested on: non-sensitive cancer cells; settings: read-out: cytotoxicity activity (IC50); cited from earlier work
[10] = PO 100 mg/kg/day × 3 months, brain
[11] = mouse, in vivo, po, 100 mg/kg/day
[12] = nasal, 100 mg/kg/day, 3 weeks, brain

NC(=O)c1ncn(C2CC(CO)C(O)C2O)c1N (centres unmarked) [ICAP]
ICAP uptake over 24 hours, liver versus brain [1]: substantially greater in liver than in brain
liver BACE1 levels ([2]; PO 100 mg/kg-bw daily, liver): diminished
brain levels of BACE1 [2, 10]: diminished
brain levels of CKs (TNF-α, IL-1β, IL-6) [2, 10]: diminished
inhibition of brain aPKC (aPKC; at higher doses): inhibit brain aPKC
effectiveness in brain (aPKC; given per os (PO), nasally, SC): effective in brain
aPKC inhibition in liver, muscle, adipose tissue (aPKC; intact mice, employed doses): inhibit aPKC in liver, but not in muscle or adipose tissue
effect on LTP and LTM (PKC-λ/ι): lack of effect
decrease of brain PKC-λ/ι (aPKC) activity (70 kDa PKC-λ/ι; IV, 100 mg/kg/day × 7 days, normal mice, brain): 50-60%
inhibition of PKC-λ versus PKMζ (70 kDa PKC-λ/ι; mouse brain): inhibits PKC-λ, but not PKMζ
inhibition of brain 70 kDa PKC-λ/ι (aPKC) activity (70 kDa PKC-λ/ι; nasal, 100 mg/kg/day, 3 weeks, normal mice, brain): 70-80%
FoxO1 phosphorylation/inactivation [3]: increase FoxO1 phosphorylation/inactivation
inhibition of aPKC, Akt2, AMPK [3]: inhibit aPKC but not Akt2 or AMP-activated kinase (AMPK)
reduction of Aβ-plaque load ([4]; PO 100 mg/kg/day × 3 months, APP/PS1 AD mice): approx. 70%
Aβ40 levels [4, 11]: reduced
Aβ42 levels [4, 11]: reduced
AD pathological and functional aberrations ([4]; nasal ICAP, APP/PS1 AD mice, not shown): corrected AD pathological and functional aberrations
decrease of brain BACE1 levels (BACE1 [5]; IV, 100 mg/kg/day × 7 days, brain): 50-60%
decrease of liver BACE1 levels (BACE1 [5]; IV, 100 mg/kg/day × 7 days, liver): approximately 90%
decrease of brain BACE1 mRNA levels (BACE1 [5]; [12]): approximately 50%
decrease of brain BACE1 protein levels (BACE1 [5]; [12]): approximately 50%
brain 50 kDa PKMζ activity (50 kDa PKMζ): not altered
passage of the BBB [6]: clearly passes the BBB and enters the brain
tissue distribution [6]: preferentially distributes to liver
memory function, Novel Object Recognition (NOR) test (Tg APP/PS1 AD mice): restored memory functions
memory function, RAWM test (Tg APP/PS1 AD mice; not shown): restored memory functions

CC(=O)OC[C@H]1O[C@@H]([S-])[C@H](OC(C)=O)[C@@H](OC(C)=O)[C@@H]1OC(C)=O.CCP(CC)CC.[Au+] [auranofin, 1-thio-β-D-glucopyranosatotriethylphosphine gold-2,3,4,6-tetraacetate]
passage of the BBB [7]: known to cross the BBB
insulin-induced increase in BACE1 levels (BACE1 [8]): diminished
inhibition of PKCι and PKCζ signaling by targeting the PB1 domain (PKCι and PKCζ): inhibits PKCι and PKCζ signaling
insulin activation of aPKC (PB1 site) (PKCι and PKCζ): inhibit insulin activation of aPKC
insulin-induced increase in NFκB activity (NFκB): diminished
IC50 (sensitive cancer cells): ≤ 10 µM
insulin-induced Akt activation (Akt): not Akt activation
levels of CA-125 (CA-125): decreased levels of CA-125 in one patient
IC50 [9]: > 40 µM
